Holding throughout (assay type): functional
Test [1] relates to Escherichia coli. Kind of test: Antibacterial activity against Escherichia coli X580 at 2 mg/ml after overnight incubation by hole plate method relative to cephalosporin C.
The test system of test [2] is Escherichia coli. Briefly: Antibacterial activity against Escherichia coli X580 at 2 mg/ml after overnight incubation by hole plate method. The settings on record: read-out: DIZ.
Test [3] concerns Staphylococcus aureus. Briefly: Antibacterial activity against Staphylococcus aureus NCTC 6571 at 2 mg/ml after overnight incubation by hole plate method. The settings on record: read-out: DIZ.
Test [4] deals with Staphylococcus aureus. Briefly: Antibacterial activity against Staphylococcus aureus NCTC 6571 at 2 mg/ml after overnight incubation by hole plate method relative to cephalosporin C.

Consider 28 compounds from ChEMBL document CHEMBL3046462, “Synthesis and anti-bacterial activities of some novel pyrazolobenzothiazine-based chalcones and their pyrimidine derivatives” (2012).

On to `COc1ccc(-c2cc(-c3ccc(-n4nc5c(c4C)N(C)S(=O)(=O)c4ccccc4-5)cc3)nc(N)n2)cc1OC`, for which the “fold change (FC)” value with Escherichia coli [1] is listed as 4.13. For the same compound, in the test on Escherichia coli [2], the zone of inhibition at 2000 µg/mL came out at 14 mm.

Take `COc1ccc(-c2cc(-c3ccc(-n4nc5c(c4C)N(C)S(=O)(=O)c4ccccc4-5)cc3)nc(N)n2)c(OC)c1OC`: the “fold change (FC)” value in the test with Escherichia coli [1] was determined as 19.06. Also, the zone of inhibition at 2000 µg/mL in the test with Escherichia coli [2] was determined as 24 mm.

Regarding `COc1cc(-c2cc(-c3ccc(-n4nc5c(c4C)N(C)S(=O)(=O)c4ccccc4-5)cc3)nc(N)n2)cc(OC)c1OC`, the “fold change (FC)” value in the test on Escherichia coli [1] is recorded as 3.55. Besides, the zone of inhibition at 2000 µg/mL with Escherichia coli [2] worked out at 13 mm.

In the case of `Cc1c2c(nn1-c1ccc(-c3cc(-c4ccc([N+](=O)[O-])cc4)nc(N)n3)cc1)-c1ccccc1S(=O)(=O)N2C`, in the test with Escherichia coli [1], the “fold change (FC)” value amounted to 4.13. Besides, the zone of inhibition at 2000 µg/mL in the test on Escherichia coli [2] worked out at 14 mm.

For `Cc1c2c(nn1-c1ccc(-c3cc(-c4ccccc4)nc(N)n3)cc1)-c1ccccc1S(=O)(=O)N2C`, in the test on Escherichia coli [1], the “fold change (FC)” value was 4.13. In addition, the zone of inhibition at 2000 µg/mL in the test with Escherichia coli [2] was determined as 14 mm.

`Cc1ccc(-c2cc(-c3ccc(-n4nc5c(c4C)N(C)S(=O)(=O)c4ccccc4-5)cc3)nc(N)n2)cc1`: the “fold change (FC)” value with Escherichia coli [1] came out at 4.13. The zone of inhibition at 2000 µg/mL in the test on Escherichia coli [2] was determined as 14 mm.

`Cc1cc(C)c(-c2cc(-c3ccc(-n4nc5c(c4C)N(C)S(=O)(=O)c4ccccc4-5)cc3)nc(N)n2)c(C)c1`: the “fold change (FC)” value with Escherichia coli [1] came to 4.81. In the test on Escherichia coli [2], the zone of inhibition at 2000 µg/mL stood at 15 mm.

Regarding `Cc1ccc(C(=O)/C=C/c2ccc(-n3nc4c(c3C)N(C)S(=O)(=O)c3ccccc3-4)cc2)cc1`, in the test on Escherichia coli [1], the “fold change (FC)” value worked out at 3.55. Further, the zone of inhibition at 2000 µg/mL in the test on Escherichia coli [2] stood at 13 mm.

As for `Cc1cc(C)c(C(=O)/C=C/c2ccc(-n3nc4c(c3C)N(C)S(=O)(=O)c3ccccc3-4)cc2)c(C)c1`, in the test on Escherichia coli [1], the “fold change (FC)” value was 4.81. For the same compound, the zone of inhibition at 2000 µg/mL in the test with Escherichia coli [2] amounted to 15 mm.

As to `Cc1c2c(nn1-c1ccc(-c3cc(-c4ccc(F)cc4)nc(N)n3)cc1)-c1ccccc1S(=O)(=O)N2C`, the “fold change (FC)” value with Escherichia coli [1] worked out at 4.81. For the same compound, in the test with Escherichia coli [2], the zone of inhibition at 2000 µg/mL is 15 mm.

Take `Cc1c2c(nn1-c1ccc(-c3cc(-c4ccc(Cl)cc4)nc(N)n3)cc1)-c1ccccc1S(=O)(=O)N2C`: the “fold change (FC)” value in the test on Escherichia coli [1] was 5.61. The zone of inhibition at 2000 µg/mL with Escherichia coli [2] is 16 mm.

Consider `Cc1c2c(nn1-c1ccc(-c3cc(-c4cccc(Cl)c4)nc(N)n3)cc1)-c1ccccc1S(=O)(=O)N2C`, for which, in the test with Escherichia coli [1], the “fold change (FC)” value worked out at 5.61. In addition, the zone of inhibition at 2000 µg/mL with Escherichia coli [2] was 16 mm.

Take `Cc1c2c(nn1-c1ccc(-c3cc(-c4ccc(Br)cc4)nc(N)n3)cc1)-c1ccccc1S(=O)(=O)N2C`: the “fold change (FC)” value turned out to be 8.87 in the test on Escherichia coli [1] and 508 in the test on Staphylococcus aureus [4]. For the same compound, the zone of inhibition at 2000 µg/mL worked out at 17 mm in the test on Staphylococcus aureus [3] and 19 mm with Escherichia coli [2].

Consider `Cc1c2c(nn1-c1ccc(-c3cc(-c4cccc(Br)c4)nc(N)n3)cc1)-c1ccccc1S(=O)(=O)N2C`, for which the “fold change (FC)” value in the test on Escherichia coli [1] came out at 4.13. In addition, the zone of inhibition at 2000 µg/mL in the test on Escherichia coli [2] is 14 mm.

Take `COc1ccccc1-c1cc(-c2ccc(-n3nc4c(c3C)N(C)S(=O)(=O)c3ccccc3-4)cc2)nc(N)n1`: the “fold change (FC)” value in the test on Escherichia coli [1] was found to be 10.34; in the test on Staphylococcus aureus [4], 1390. Moreover, the values for the zone of inhibition at 2000 µg/mL with Staphylococcus aureus [3] and in the test on Escherichia coli [2] were 22 mm and 20 mm, respectively.

On to `Cc1c2c(nn1-c1ccc(C(=O)/C=C/c3ccc(F)cc3)cc1)-c1ccccc1S(=O)(=O)N2C`, for which the “fold change (FC)” value in the test on Escherichia coli [1] is on record as 4.13. In the test on Escherichia coli [2], the zone of inhibition at 2000 µg/mL was found to be 14 mm.

Consider `Cc1c2c(nn1-c1ccc(C(=O)/C=C/c3ccc(Cl)cc3)cc1)-c1ccccc1S(=O)(=O)N2C`, for which the “fold change (FC)” value with Escherichia coli [1] is recorded as 3.55. Besides, the zone of inhibition at 2000 µg/mL in the test on Escherichia coli [2] was 13 mm.

On to `Cc1c2c(nn1-c1ccc(C(=O)/C=C/c3cccc(Cl)c3)cc1)-c1ccccc1S(=O)(=O)N2C`, for which the “fold change (FC)” value with Escherichia coli [1] is 4.81. For the same compound, the zone of inhibition at 2000 µg/mL in the test on Escherichia coli [2] is 15 mm.

Take `Cc1c2c(nn1-c1ccc(C(=O)/C=C/c3ccc(Cl)cc3Cl)cc1)-c1ccccc1S(=O)(=O)N2C`: in the test with Escherichia coli [1], the “fold change (FC)” value came to 5.61. Further, the zone of inhibition at 2000 µg/mL in the test on Escherichia coli [2] stood at 16 mm.

`Cc1c2c(nn1-c1ccc(C(=O)/C=C/c3ccc(Br)cc3)cc1)-c1ccccc1S(=O)(=O)N2C`: the “fold change (FC)” value in the test on Escherichia coli [1] came to 4.81. Also, the zone of inhibition at 2000 µg/mL in the test on Escherichia coli [2] amounted to 15 mm.

In the case of `Cc1c2c(nn1-c1ccc(C(=O)/C=C/c3cccc(Br)c3)cc1)-c1ccccc1S(=O)(=O)N2C`, the “fold change (FC)” value in the test on Escherichia coli [1] came out at 6.53. The zone of inhibition at 2000 µg/mL in the test on Escherichia coli [2] came out at 17 mm.

Regarding `COc1ccccc1/C=C/C(=O)c1ccc(-n2nc3c(c2C)N(C)S(=O)(=O)c2ccccc2-3)cc1`, the “fold change (FC)” value in the test on Escherichia coli [1] is 5.61. In addition, the zone of inhibition at 2000 µg/mL with Escherichia coli [2] worked out at 16 mm.

Take `COc1ccc(/C=C/C(=O)c2ccc(-n3nc4c(c3C)N(C)S(=O)(=O)c3ccccc3-4)cc2)cc1OC`: the “fold change (FC)” value in the test with Escherichia coli [1] amounted to 4.81. For the same compound, the zone of inhibition at 2000 µg/mL with Escherichia coli [2] is 15 mm.

As for `COc1ccc(/C=C/C(=O)c2ccc(-n3nc4c(c3C)N(C)S(=O)(=O)c3ccccc3-4)cc2)c(OC)c1OC`, the “fold change (FC)” value in the test on Escherichia coli [1] was 4.13. The zone of inhibition at 2000 µg/mL in the test with Escherichia coli [2] stood at 14 mm.

`Cc1c2c(nn1-c1ccc(C(=O)/C=C/c3ccc([N+](=O)[O-])cc3)cc1)-c1ccccc1S(=O)(=O)N2C`: in the test on Escherichia coli [1], the “fold change (FC)” value was 4.81. The zone of inhibition at 2000 µg/mL with Escherichia coli [2] was 15 mm.

Turning to `Cc1c2c(nn1-c1ccc(/C=C/C(=O)c3ccc(Cl)cc3)cc1)-c1ccccc1S(=O)(=O)N2C`, the “fold change (FC)” value with Escherichia coli [1] is 4.13. Besides, the zone of inhibition at 2000 µg/mL with Escherichia coli [2] came out at 14 mm.

Regarding `Cc1c2c(nn1-c1ccc(/C=C/C(=O)c3ccc(Br)cc3)cc1)-c1ccccc1S(=O)(=O)N2C`, the “fold change (FC)” value in the test on Escherichia coli [1] was determined as 5.61. The zone of inhibition at 2000 µg/mL in the test with Escherichia coli [2] amounted to 16 mm.

For the compound `COc1ccc(C(=O)/C=C/c2ccc(-n3nc4c(c3C)N(C)S(=O)(=O)c3ccccc3-4)cc2)cc1`, the “fold change (FC)” value in the test with Escherichia coli [1] turned out to be 4.81. The zone of inhibition at 2000 µg/mL with Escherichia coli [2] was determined as 15 mm.
